Among the data in patent US10988524B2, “Modified relaxin B chain peptides and their therapeutic use” (priority 2018, dated 2021) are Emax and EC50 values, retold here.

The structures appear in SMILES notation. Non-standard residues stand in square brackets, D forms with d. Residues, ends and D or L forms follow the SMILES beside them. 1Nal = N[C@@H](Cc1cccc2ccccc12)C(=O)O; αMeS = C[C@](N)(CO)C(=O)O; Nle = CCCC[C@H](N)C(=O)O; Aib = CC(C)(N)C(=O)O

This assay has as its target T1, RXFP1 (Homo sapiens, UniProt Q9HBX9).
T1 sequence (Q9HBX9 1-757): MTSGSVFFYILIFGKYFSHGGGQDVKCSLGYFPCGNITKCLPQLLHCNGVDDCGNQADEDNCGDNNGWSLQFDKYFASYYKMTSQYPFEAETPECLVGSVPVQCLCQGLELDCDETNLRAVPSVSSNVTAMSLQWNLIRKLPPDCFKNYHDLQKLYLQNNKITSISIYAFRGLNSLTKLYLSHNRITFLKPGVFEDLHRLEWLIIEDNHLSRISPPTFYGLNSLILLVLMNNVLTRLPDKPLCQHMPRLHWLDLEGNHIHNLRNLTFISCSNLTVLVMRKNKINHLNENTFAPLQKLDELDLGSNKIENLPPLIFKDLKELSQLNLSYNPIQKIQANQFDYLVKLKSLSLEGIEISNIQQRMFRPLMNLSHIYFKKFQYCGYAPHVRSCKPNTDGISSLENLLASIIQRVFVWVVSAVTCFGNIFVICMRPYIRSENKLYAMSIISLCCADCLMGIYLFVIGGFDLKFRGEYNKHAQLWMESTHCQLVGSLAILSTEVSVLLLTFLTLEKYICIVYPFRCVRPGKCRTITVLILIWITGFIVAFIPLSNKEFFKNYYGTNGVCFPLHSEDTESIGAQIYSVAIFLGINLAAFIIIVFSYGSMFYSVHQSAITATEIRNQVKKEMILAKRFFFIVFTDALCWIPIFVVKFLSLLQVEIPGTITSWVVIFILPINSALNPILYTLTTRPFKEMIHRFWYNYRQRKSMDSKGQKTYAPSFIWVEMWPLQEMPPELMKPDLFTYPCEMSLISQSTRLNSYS
The experiment in a line: OVCAR5 cAMP assay (RXFP1 agonist activity, HTRF). The conditions noted are these: for Emax: OVCAR-5, read-out: cAMP assay in OVCAR 5 cells Emax, maximal intracellular cAMP relative to H2-relaxin in the same test occasion; for EC50: cAMP assay in OVCAR 5 cells EC50 (nM), OVCAR5 cells expressing endogenous RXFP1, cAMP by HTRF, 30 min at 37° C., 1 mM IBMX.

One may read the Emax as the size of the effect at its maximum, as opposed to the concentration needed. Usually EC50 stands for the midpoint of the concentration-response curve. Read a low EC50 as greater potency. For the compound `CCCC[C@H](NC(=O)CNC(=O)[C@H](CCC(=O)O)NC(=O)C(C)(C)NC(=O)C(C)(C)NC(=O)[C@@H](NC(=O)[C@H](CCC(N)=O)NC(=O)[C@H](C)NC(=O)[C@H](CCCNC(=N)N)NC(=O)[C@@H](NC(=O)[C@H](CCCCN)NC(=O)[C@H](CCC(=O)O)NC(=O)[C@H](CCCNC(=N)N)NC(=O)CNC(=O)[C@H](CCC(=O)O)NC(=O)[C@H](CC(C)C)NC(C)=O)C(C)C)[C@@H](C)CC)C(=O)N[C@@H](CO)C(=O)N[C@H](C(=O)N[C@@H](Cc1c[nH]c2ccccc12)C(=O)N[C@@H](CO)C(=O)NC(C)(C)C(=O)N[C@@H](CCCNC(=N)N)C(=O)N[C@@H](CCCCN)C(=O)N[C@@H](CCCCNC(C)=O)C(N)=O)[C@@H](C)O` [compound 21] (Ac-LEGREKVRAQI[Aib][Aib]EG[Nle]STWS[Aib]RKK(Ac)-NH2), the Emax amounted to 96% and the EC50 was 32.8 nM.
Take `CCCC[C@H](NC(=O)CNC(=O)[C@H](CCC(=O)O)NC(=O)C(C)(C)NC(=O)C(C)(C)NC(=O)[C@@H](NC(=O)[C@H](CCC(N)=O)NC(=O)[C@H](C)NC(=O)[C@H](CCCNC(=N)N)NC(=O)[C@@H](NC(=O)[C@H](CCCCN)NC(=O)[C@H](CCC(=O)O)NC(=O)[C@H](CCCNC(=N)N)NC(=O)CNC(=O)[C@H](CCC(=O)O)NC(=O)[C@H](CC(C)C)NC(C)=O)C(C)C)[C@@H](C)CC)C(=O)N[C@@H](CO)C(=O)N[C@H](C(=O)N[C@@H](Cc1c[nH]c2ccccc12)C(=O)N[C@@H](C)C(=O)NC(C)(C)C(=O)N[C@@H](CCCNC(=N)N)C(=O)N[C@@H](CCCCN)C(=O)N[C@@H](CCCCN)C(N)=O)[C@@H](C)O` [compound 22] (Ac-LEGREKVRAQI[Aib][Aib]EG[Nle]STWA[Aib]RKK-NH2): the Emax stood at 102%.
With `CCCC[C@H](NC(=O)CNC(=O)[C@H](CCC(=O)O)NC(=O)C(C)(C)NC(=O)C(C)(C)NC(=O)[C@@H](NC(=O)[C@H](CCC(N)=O)NC(=O)[C@H](C)NC(=O)[C@H](CCCNC(=N)N)NC(=O)[C@@H](NC(=O)[C@H](CCCCN)NC(=O)[C@H](CCC(=O)O)NC(=O)[C@H](CCCNC(=N)N)NC(=O)CNC(=O)[C@H](CCC(=O)O)NC(=O)[C@H](CC(C)C)NC(C)=O)C(C)C)[C@@H](C)CC)C(=O)N[C@@H](CO)C(=O)N[C@H](C(=O)N[C@@H](Cc1c[nH]c2ccccc12)C(=O)N[C@H](C(=O)NC(C)(C)C(=O)N[C@@H](CCCNC(=N)N)C(=O)N[C@@H](CCCCN)C(=O)N[C@@H](CCCCN)C(N)=O)[C@@H](C)O)[C@@H](C)O` [compound 23] (Ac-LEGREKVRAQI[Aib][Aib]EG[Nle]STWT[Aib]RKK-NH2), the Emax amounted to 95%.
With `CCCC[C@H](NC(=O)CNC(=O)[C@H](CCC(=O)O)NC(=O)C(C)(C)NC(=O)C(C)(C)NC(=O)[C@@H](NC(=O)[C@H](CCCCNC(C)=O)NC(=O)[C@H](C)NC(=O)[C@H](CCCNC(=N)N)NC(=O)[C@@H](NC(=O)[C@H](CCCCN)NC(=O)[C@H](CCC(=O)O)NC(=O)[C@H](CCCNC(=N)N)NC(=O)CNC(=O)[C@H](CCC(=O)O)NC(=O)[C@H](CC(C)C)NC(C)=O)C(C)C)[C@@H](C)CC)C(=O)N[C@@H](CO)C(=O)N[C@H](C(=O)N[C@@H](Cc1c[nH]c2ccccc12)C(=O)N[C@@H](CO)C(=O)NC(C)(C)C(=O)N[C@@H](CCCNC(=N)N)C(=O)N[C@@H](CCCCN)C(=O)N[C@@H](CCCCN)C(N)=O)[C@@H](C)O` [compound 24] (Ac-LEGREKVRAK(Ac)I[Aib][Aib]EG[Nle]STWS[Aib]RKK-NH2), the Emax amounted to 92%.
Turning to `CCCC[C@H](NC(=O)CNC(=O)[C@H](CCC(=O)O)NC(=O)C(C)(C)NC(=O)C(C)(C)NC(=O)[C@@H](NC(=O)[C@H](CCCCNC(C)=O)NC(=O)[C@H](C)NC(=O)[C@H](CCCNC(=N)N)NC(=O)[C@@H](NC(=O)[C@H](CCCCN)NC(=O)[C@H](CCC(=O)O)NC(=O)[C@H](CCCNC(=N)N)NC(=O)CNC(=O)[C@H](CCC(=O)O)NC(=O)[C@H](CC(C)C)NC(C)=O)C(C)C)[C@@H](C)CC)C(=O)N[C@@H](CO)C(=O)N[C@H](C(=O)N[C@@H](Cc1c[nH]c2ccccc12)C(=O)N[C@@H](CO)C(=O)N[C@@H](CCCCNC(C)=O)C(=O)N[C@@H](CCCNC(=N)N)C(=O)N[C@@H](CCCCN)C(=O)N[C@@H](CCCCN)C(N)=O)[C@@H](C)O` [compound 25] (Ac-LEGREKVRAK(Ac)I[Aib][Aib]EG[Nle]STWSK(Ac)RKK-NH2), the Emax came to 100% and the 50% effective concentration (EC50) was at most 5 nM.
Regarding `CCCC[C@H](NC(=O)CNC(=O)[C@H](CCC(=O)O)NC(=O)C(C)(C)NC(=O)C(C)(C)NC(=O)[C@@H](NC(=O)[C@H](CCCCNC(C)=O)NC(=O)[C@H](C)NC(=O)[C@H](CCCNC(=N)N)NC(=O)[C@@H](NC(=O)[C@H](CCCCN)NC(=O)[C@H](CCC(=O)O)NC(=O)[C@H](CCCNC(=N)N)NC(=O)CNC(=O)[C@H](CCC(=O)O)NC(=O)[C@H](CC(C)C)NC(C)=O)C(C)C)[C@@H](C)CC)C(=O)N[C@@H](CO)C(=O)N[C@H](C(=O)N[C@@H](Cc1c[nH]c2ccccc12)C(=O)N[C@@H](CO)C(=O)NC(C)(C)C(=O)N[C@@H](CCCNC(=N)N)C(=O)N[C@@H](CCCCNC(C)=O)C(=O)N[C@@H](CCCCN)C(N)=O)[C@@H](C)O` [compound 27] (Ac-LEGREKVRAK(Ac)I[Aib][Aib]EG[Nle]STWS[Aib]RK(Ac)K-NH2), the Emax worked out at 95% and the half-maximal effective concentration (EC50) is 9.5 nM.
On to `CCCC[C@H](NC(=O)CNC(=O)[C@H](CCC(=O)O)NC(=O)C(C)(C)NC(=O)C(C)(C)NC(=O)[C@@H](NC(=O)[C@H](CCCCNC(C)=O)NC(=O)[C@H](C)NC(=O)[C@H](CCCNC(=N)N)NC(=O)[C@@H](NC(=O)[C@H](CCCCN)NC(=O)[C@H](CCC(=O)O)NC(=O)[C@H](CCCNC(=N)N)NC(=O)CNC(=O)[C@H](CCC(=O)O)NC(=O)[C@H](CC(C)C)NC(C)=O)C(C)C)[C@@H](C)CC)C(=O)N[C@@H](CO)C(=O)N[C@H](C(=O)N[C@@H](Cc1c[nH]c2ccccc12)C(=O)N[C@@H](CO)C(=O)NC(C)(C)C(=O)N[C@@H](CCCNC(=N)N)C(=O)N[C@@H](CCCCNC(C)=O)C(=O)N[C@@H](CCCCNC(C)=O)C(N)=O)[C@@H](C)O` [compound 28] (Ac-LEGREKVRAK(Ac)I[Aib][Aib]EG[Nle]STWS[Aib]RK(Ac)K(Ac)-NH2), for which the Emax was found to be 92%.
Same read-out and setting: under `CCCC[C@H](NC(=O)CNC(=O)[C@H](CCC(=O)O)NC(=O)C(C)(C)NC(=O)C(C)(C)NC(=O)[C@@H](NC(=O)[C@H](CCCCNC(C)=O)NC(=O)[C@H](C)NC(=O)[C@H](CCCNC(=N)N)NC(=O)[C@@H](NC(=O)[C@H](CCCCN)NC(=O)[C@H](CCC(=O)O)NC(=O)[C@H](CCCNC(=N)N)NC(=O)CNC(=O)[C@H](CCC(=O)O)NC(=O)[C@H](CC(C)C)NC(C)=O)C(C)C)[C@@H](C)CC)C(=O)N[C@@H](CO)C(=O)N[C@H](C(=O)N[C@@H](Cc1cccc2ccccc12)C(=O)N[C@@H](CO)C(=O)NC(C)(C)C(=O)N[C@@H](CCCNC(=N)N)C(=O)N[C@@H](CCCCN)C(=O)N[C@@H](CCCCNC(C)=O)C(N)=O)[C@@H](C)O` [compound 29] (Ac-LEGREKVRAK(Ac)I[Aib][Aib]EG[Nle]ST[1Nal]S[Aib]RKK(Ac)-NH2) stands 98%; under `CCCC[C@H](NC(=O)CNC(=O)[C@H](CCC(=O)O)NC(=O)C(C)(C)NC(=O)C(C)(C)NC(=O)[C@@H](NC(=O)[C@H](CCCCNC(C)=O)NC(=O)[C@H](C)NC(=O)[C@H](CCCNC(=N)N)NC(=O)[C@@H](NC(=O)[C@H](CCCCN)NC(=O)[C@H](CCC(=O)O)NC(=O)[C@H](CCCNC(=N)N)NC(=O)CNC(=O)[C@H](CCC(=O)O)NC(=O)[C@H](CC(C)C)NC(C)=O)C(C)C)[C@@H](C)CC)C(=O)N[C@@H](CO)C(=O)N[C@H](C(=O)N[C@@H](Cc1c[nH]c2ccccc12)C(=O)N[C@@](C)(CO)C(=O)NC(C)(C)C(=O)N[C@@H](CCCNC(=N)N)C(=O)N[C@@H](CCCCN)C(=O)N[C@@H](CCCCNC(C)=O)C(N)=O)[C@@H](C)O` [compound 30] (Ac-LEGREKVRAK(Ac)I[Aib][Aib]EG[Nle]STW[αMeS][Aib]RKK(Ac)-NH2), 93%.
With `CCCC[C@H](NC(=O)CNC(=O)[C@H](CCC(=O)O)NC(=O)C(C)(C)NC(=O)C(C)(C)NC(=O)[C@@H](NC(=O)[C@H](CCCCNC(C)=O)NC(=O)[C@H](C)NC(=O)[C@H](CCCNC(=N)N)NC(=O)[C@@H](NC(=O)[C@H](CCCCN)NC(=O)[C@H](CCC(=O)O)NC(=O)[C@H](CCCNC(=N)N)NC(=O)CNC(=O)[C@H](CCC(=O)O)NC(=O)[C@H](CC(C)C)NC(C)=O)C(C)C)[C@@H](C)CC)C(=O)N[C@@H](CO)C(=O)N[C@H](C(=O)N[C@@H](Cc1c[nH]c2ccccc12)C(=O)N[C@@H](CO)C(=O)NC(C)(C)C(=O)N[C@@H](CCCNC(=N)N)C(=O)N[C@@H](CCCCN)C(=O)N[C@@H](CCC(N)=O)C(N)=O)[C@@H](C)O` [compound 31] (Ac-LEGREKVRAK(Ac)I[Aib][Aib]EG[Nle]STWS[Aib]RKQ-NH2), the Emax is 96%.
